Biological target: human PAD4 (hPAD4) (Homo sapiens, UniProt Q9UM07)
Experiment: RFMS human PAD4 functional assay (rapid-fire mass spectrum)
Format: biochemical
Details: 5 nM hPAD4 enzyme, 250 μM BAEE, 50 μM Calcium; 30 min preincubation, 90 min reaction at 37° C.
Method in brief: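 PAD4 (10 nM) preincubated 30 min with compound (top final 50 μM), then BAEE substrate added in pH 7.5 HEPES buffer with DTT, 50 μM calcium, TPEN; 90 min at 37° C. After TCA quench, citrulline derivatized with phenyl glyoxal (4 mM final, 30 min, 37° C) and quantified by RapidFire MS against internal standard.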

Sequence of human PAD4 (hPAD4) (Q9UM07 whole entry): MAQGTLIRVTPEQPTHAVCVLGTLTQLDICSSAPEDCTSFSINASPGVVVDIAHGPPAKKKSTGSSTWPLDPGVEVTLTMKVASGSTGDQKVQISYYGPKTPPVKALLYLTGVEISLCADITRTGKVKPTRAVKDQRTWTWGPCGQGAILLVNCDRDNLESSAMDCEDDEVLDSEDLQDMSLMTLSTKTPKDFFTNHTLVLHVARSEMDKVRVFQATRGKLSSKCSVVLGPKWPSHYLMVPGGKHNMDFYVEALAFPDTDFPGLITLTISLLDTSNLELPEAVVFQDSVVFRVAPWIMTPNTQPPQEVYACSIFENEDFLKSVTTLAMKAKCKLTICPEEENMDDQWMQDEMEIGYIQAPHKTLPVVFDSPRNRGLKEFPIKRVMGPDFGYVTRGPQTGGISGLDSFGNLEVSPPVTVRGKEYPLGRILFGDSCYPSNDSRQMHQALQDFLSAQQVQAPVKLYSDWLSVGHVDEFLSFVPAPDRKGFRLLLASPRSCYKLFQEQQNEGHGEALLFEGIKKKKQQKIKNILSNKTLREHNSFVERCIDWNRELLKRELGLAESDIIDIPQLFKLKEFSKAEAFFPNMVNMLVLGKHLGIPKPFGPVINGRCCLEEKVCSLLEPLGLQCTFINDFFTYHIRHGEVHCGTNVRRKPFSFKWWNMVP

SMILES	IC50
COc1cc(C(=O)N2C[C@H]3CC[C@@H]2[C@@H]3N)cc2nc(-c3cc4cccnc4n3CC3CC3)n(CC3CCN(C(=O)c4ccnc(Cl)c4)CC3)c12 [Example 198, (1R,4R,7R)-2-(1-{[1-(2-chloropyridine-4-carbonyl)piperidin-4-yl]methyl}-2-[1-(cyclopropylmethyl)-1H-pyrrolo[2,3-b]pyridin-2-yl]-7-methoxy-1H-1,3-benzodiazole-5-carbonyl)-2-azabicyclo[2.2.1]heptan-7-amine]	131 nM
COc1cc(C(=O)N2CC3CCC2[C@@H]3N)cc2nc(-c3cc4ccccc4n3CC3CC3)n(CC3CN(C(=O)[C@H]4C[C@@H]4C)C3)c12 (stereo partly drawn) [Example 172, (1R,4R,7R)-2-{2-[1-(cyclopropylmethyl)-1H-indol-2-yl]-7-methoxy-1-({1-[(1S,2S)-2-methylcyclopropanecarbonyl]aze-tidin-3-yl}methyl)-1H-1,3-benzodiazole-5-carbonyl}-2-azabicyclo[2.2.1]heptan-7-amine]	42 nM
COc1cc(C(=O)N2C[C@H]3CC[C@@H]2[C@@H]3N)cc2nc(-c3cc4ccccc4n3C)n(CC3CN(c4ccnc(C#N)n4)C3)c12 [Example 10, 4-[3-({5-[(1R,4R,7R)-7-amino-2-azabicyclo[2.2.1]heptane-2-carbonyl]-7-methoxy-2-(1-methyl-1H-indol-2-yl)-1H-1,3-benzodiazol-1-yl}methyl)azetidin-1-yl]pyrimidine-2-carbonitrile]	32 nM
COc1cc(C(=O)N2C[C@H]3CC[C@@H]2[C@@H]3N)cc2nc(-c3cc4ccccc4n3CC3CC3)n(CC3CN(C(=O)c4ccccc4)C3)c12 [Example 145, (1R,4R,7R)-2-{1-[(1-benzoylazetidin-3-yl)methyl]-2-[1-(cyclopropylmethyl)-1H-indol-2-yl]-7-methoxy-1H-1,3-benzodiazole-5-carbonyl}-2-azabicyclo[2.2.1]heptan-7-amine]	18 nM
COc1cc(C(=O)N2C[C@H]3CC[C@@H]2[C@@H]3N)cc2nc(-c3cc4ccc(Cl)cc4n3CC3CC3)n(CC3CN(c4ccnc(C(N)=O)n4)C3)c12 [Example 8, 4-[3-({5-[(1R,4R,7R)-7-amino-2-azabicyclo[2.2.1]heptane-2-carbonyl]-2-[6-chloro-1-(cyclopropylmethyl)-1H-indol-2-yl]-7-methoxy-1H-1,3-benzodiazol-1-yl}methyl)azetidin-1-yl]pyrimidine-2-carboxamide]	18 nM
COc1cc(C(=O)N2C[C@H]3CC[C@@H]2[C@@H]3N)cc2nc(-c3cc4cccnc4n3CC3CC3)n(C[C@H]3CCN(c4ccnc(C)n4)C3)c12 [Example 208, ((1R,4R,7R)-7-amino-2-azabicyclo[2.2.1]heptan-2-yl)(2-(1-(cyclopropylmethyl)-1H-pyrrolo[2,3-b]pyridin-2-yl)-7-methoxy-1-(((S)-1-(2-methylpyrimidin-4-yl)pyrrolidin-3-yl)methyl)-1H-benzo[d]imidazol-5-yl)methanone]	25 nM
COc1cc(C(=O)N2C[C@H]3CC[C@@H]2[C@@H]3N)cc2nc(-c3cc4cccnc4n3CC3CC3)n(CC3CN(c4ccnc(C#N)c4)C3)c12 [Example 31, 4-[3-({5-[(1R,4R,7R)-7-amino-2-azabicyclo[2.2.1]heptane-2-carbonyl]-2-[1-(cyclopropylmethyl)-1H-pyrrolo[2,3-b]pyridin-2-yl]-7-methoxy-1H-1,3-benzodiazol-1-yl}methyl)azetidin-1-yl]pyridine-2-carbonitrile]	85 nM
COc1cc(C(=O)N2C[C@H]3CC[C@@H]2[C@@H]3N)cc2nc(-c3cc4cccnc4n3C)n(CC3CN(c4nccnc4C#N)C3)c12 [Example 39, 3-[3-({5-[(1R,4R,7R)-7-amino-2-azabicyclo[2.2.1]heptane-2-carbonyl]-7-methoxy-2-{1-methyl-1H-pyrrolo[2,3-b]pyridin-2-yl}-1H-1,3-benzodiazol-1-yl}methyl)azetidin-1-yl]pyrazine-2-carbonitrile]	94 nM
COc1cc(C(=O)N2C[C@H]3CC[C@@H]2[C@@H]3N)cc2nc(-c3cc4ccccc4n3CC3CC3)n(CC3CN(c4cncc(C#N)c4)C3)c12 [Example 67, 5-[3-({5-[(1R,4R,7R)-7-amino-2-azabicyclo[2.2.1]heptane-2-carbonyl]-2-[1-(cyclopropylmethyl)-1H-indol-2-yl]-7-methoxy-1H-1,3-benzodiazol-1-yl}methyl)azetidin-1-yl]pyridine-3-carbonitrile]	40 nM
COc1cc(C(=O)N2C[C@H]3CC[C@@H]2[C@@H]3N)cc2nc(-c3cc4cccnc4n3C)n(C[C@H]3CCN(c4ccnc(C5CC5)n4)C3)c12 [Example 209, (1R,4R,7R)-2-(1-{[(3S)-1-(2-cyclopropylpyrimidin-4-yl)pyrrolidin-3-yl]methyl}-7-methoxy-2-{1-methyl-1H-pyrrolo[2,3-b]pyridin-2-yl}-1H-1,3-benzodiazole-5-carbonyl)-2-azabicyclo[2.2.1]heptan-7-amine]	61 nM
COc1cc(C(=O)N2CC3CCC2[C@@H]3N)cc2nc(-c3cc4ccccc4n3CC3CC3)n(C[C@H]3CCN(c4ccnc(C#N)n4)C3)c12 (stereo partly drawn) [Example 223, 4-[(3S)-3-({5-[(1R,4R,7R)-7-amino-2-azabicyclo[2.2.1]heptane-2-carbonyl]-2-[1-(cyc1opropylmethyl)-1H-indo1-2-yl]-7-methoxy-1H-1,3-benzodiazo1-1-yl}methyl)pyrrolidin-1-yl]pyrimidine-2-carbonitrile]	18 nM

Other lines, results leading:

IC50	SMILES
30 nM	COc1cc(C(=O)N2CC3CCC2[C@@H]3N)cc2nc(-c3cc4cccnc4n3CC3CC3)n(CC3CN(C(=O)C4CCC(F)(F)C4)C3)c12 (stereo partly drawn) [Example 430, (7R)-2-{2-[1-(cyclopropylmethyl)-1H-pyrrolo[2,3-b]pyridin-2-yl]-1-{[1-(3,3-difluorocyclopentanecarbonyl)azetidin-3-yl]methyl}-7-methoxy-1H-1,3-benzodiazole-5-carbonyl}-2-azabicyclo[2.2.1]heptan-7-amine]
66 nM	COc1ncccc1-n1cc(Cn2c(-c3cc4ccccc4n3CC3CC3)nc3cc(C(=O)N4CC5CCC4[C@@H]5N)cc(OC)c32)cn1 (stereo partly drawn) [Example 403, (7R)-2-{2-[1-(cyclopropylmethyl)-1H-indol-2-yl]-7-methoxy-1-{[1-(2-methoxypyridin-3-yl)-1H-pyrazol-4-yl]methyl}-1H-1,3-benzodiazole-5-carbonyl)-2-azabicyclo[2.2.1]heptan-7-amine]
649 nM	COc1cc(C(=O)N2C[C@H](N)C[C@@H](F)C2)cc2nc(-c3cc4ccccc4n3CC3CC3)n(CC3CC(=O)N(C)C3)c12 (mixture of isomers) [Example 281, 4-({5-[(3R,5R)-3-amino-5-fluoropiperidine-1-carbonyl]-2-[1-(cyclopropylmethyl)-1H-indol-2-yl]-7-methoxy-1H-1,3-benzodiazol-1-yl}methyl)-1-methylpyrrolidin-2-one]
46 nM	Cc1cc(C(=O)N2CC3CCC2[C@@H]3N)cc2nc(-c3cc4ccccc4n3CC3CC3)n(CC3CN(C(=O)c4ccccc4)C3)c12 (stereo partly drawn) [Example 450, (7R)-2-{1-[(1-benzoylazetidin-3-yl)methyl]-2-[1-(cyclopropylmethyl)-1H-indol-2-yl]-7-methyl-1H-1,3-benzodiazole-5-carbonyl}-2-azabicyclo[2.2.1]heptan-7-amine]
42 nM	COc1cc(C(=O)N2CC3CCC2[C@@H]3N)cc2nc(-c3cc4ccccc4n3CC3CC3)n(Cc3cnn(-c4cccnc4C#N)c3)c12 (stereo partly drawn) [Example 385, 3-[4-({5-[(7R)-7-amino-2-azabicyclo[2.2.1]heptane-2-carbonyl]-2-[1-(cyclopropylmethyl)-1H-indol-2-yl]-7-methoxy-1H-1,3-benzodiazol-1-yl}methyl)-1H-pyrazol-1-yl]pyridine-2-carbonitrile]
66 nM	COc1cc(C(=O)N2CC3CCC2[C@@H]3N)cc2nc(-c3cc4cccnc4n3CC3CC3)n(CC3CN(C(=O)c4ccc(C#N)c(F)c4)C3)c12 (stereo partly drawn) [Example 459, 4-[3-({5-[(7R)-7-amino-2-azabicyclo[2.2.1]heptane-2-carbonyl]-2-[1-(cyclopropylmethyl)-1H-pyrrolo[2,3-b]pyridin-2-yl]-7-methoxy-1H-1,3-benzodiazol-1-yl}methyl)azetidine-1-carbonyl]-2-fluorobenzonitrile]
55 nM	COc1cc(C(=O)N2CC3CCC2[C@@H]3N)cc2nc(-c3cc4cccnc4n3CC3CC3)n(Cc3cn[nH]c3)c12 (stereo partly drawn) [Example 488, (7R)-2-{2-[1-(cyclopropylmethyl)-1H-pyrrolo[2,3-b]pyridin-2-yl]-7-methoxy-1-[(1H-pyrazol-4-yl)methyl]-1H-1,3-benzodiazole-5-carbonyl}-2-azabicyclo[2.2.1]heptan-7-amine]
263 nM	COc1cc(C(=O)N2CCC[C@@H](N)C2)cc2nc(-c3cc4cccnc4n3CC3CC3)n(CC3CN(C(=O)c4ccccc4)C3)c12 [Example 413, (3R)-1-{1-[(1-benzoylazetidin-3-yl)methyl]-2-[1-(cyclopropylmethyl)-1H-pyrrolo[2,3-b]pyridin-2-yl]-7-methoxy-1H-1,3-benzodiazole-5-carbonyl}piperidin-3-amine]
177 nM	COc1cc(C(=O)N2C[C@H](N)CC[C@@H]2C)cc2nc(-c3cc4cccnc4n3CC3CC3)n(CC3CN(C(=O)c4ccccc4)C3)c12 [Example 470, (3R,6S)-1-{1-[(1-benozylazetidin-3-yl)methyl]-2-[1-(cyclopropylmethyl)-1H-pyrrolo[2,3-b]pyridin-2-yl]-7-methoxy-1H-1,3-benzodiazole-5-carbonyl}-6-methylpiperidin-3-amine]
69 nM	COc1cc(C(=O)N2C[C@H](N)C[C@@H](F)C2)cc2nc(-c3cc4cccnc4n3CC3CC3)n(Cc3cnn(-c4cncc(F)c4)c3)c12 [Example 406, (3R,5R)-1-{2-[1-(cyclopropylmethyl)-1H-pyrrolo[2,3-b]pyridin-2-yl]-1-{[1-(5-fluoropyridin-3-yl)-1H-pyrazol-4-yl]methyl}-7-methoxy-1H-1,3-benzodiazole-5-carbonyl}-5-fluoropiperidin-3-amine]
